Reference: patent US20230112958A1, “Smart Drug Delivery System and Pharmaceutical Kit for Dual Nuclear Medical Cytotoxic Theranostics” (SCV-SpezialChemikalienVertrieb GmbH, priority 2019, published 2023)
Like-named read-outs stand apart in the source and are kept apart here. Non-standard residues stand in square brackets, D forms with d. Residues, ends and D or L forms follow the SMILES beside them. *: point of attachment. Dolaproine = CO[C@@H]([C@@H]1CCCN1)[C@@H](C)C(=O)O; Dil = CC[C@H](C)[C@H](NC)[C@@H](CC(=O)O)OC; X1 = C[C@@H](N*)[C@@H](O)c1ccccc1; NMeV = CN[C@H](C(=O)O)C(C)C

Legend:
LNCaP tumor = system: LNCaP tumor; design: species or system Balb/c mice; details: mouse, in vivo
Method: DATA.QS.KuE was labeled with ^68Ga and tested in vivo on LNCaP tumor-carrying Balb/c mice. […] The selectivity of binding was determined by means of competitive co-injection of the PSMA inhibitor PMPA. […] FIGS. 10a and 10b show the maximum-intensity projections from μPET studies with [^68Ga]-PSMA-11 and, respectively, [^68Ga]-DATA.QS.KuE in LNCaP tumor-carrying Balb/c. FIGS. 11a and 11b Showtime-activity curves of [^68Ga]-PSMA-11 and, respectively, [^68Ga]-DATA.QS.KuE. […] In the case of treatment with highly ionizing radionuclides, for example ^177Lu, rather than ^68Ga, DATA.QS.KuE enables a crucial reduction in nephrotoxicity.

PSMA = target: T1, PSMA (Homo sapiens, UniProt Q04609); test: Cell-based competitive PSMA binding assay on LNCaP cells against reference 68Ga[Ga]PSMA-10
T1 construct: incubated in the wells with the LNCaP cells for 45 min; endogenous in cells; host or cells: LNCaP cells
Method: By means of a cell-based assay, the affinity of the target vector-linker units QS.KuE, QS.K.EuE and KuE with a lipophilic linker—analogously to PSMA-617—and the affinity of the substructures NH2.DOTAGA.617.KuE and NH2-DOTAGA.QS.KuE was determined. In addition, the PSMA affinity of the structure MMAE.ValCit.QS.617.KuE which is preferred in accordance with the invention (see scheme 30) was determined.
For the essay, LNCaP cells were pipetted into multiwell plates (Merck Millipore Multiscreen™). The compounds to be analyzed were each admixed with a defined amount or concentration of the reference compound ^68Ga[Ga]PSMA-10 with a known Kd value and incubated in the wells with the LNCaP cells for 45 min. After repeated washing, the cell-bound activity was determined.
In order to determine non-specific binding, all compounds were additionally admixed with an excess of the PSMA inhibitor 2-PMPA (2-(phosphonomethyl)-[…]) and subjected to the same LNCaP assay—as described above.

LNCaP cells = test: CellTiter Blue cytotoxicity assay; format: cell-based; details: for IC50: 72 hours incubation, read-out: IC50 (cytotoxic action in vitro)
Method: In a CellTiter Blue assay, LNCaP cells were incubated with the substance to be studied for 72 hours, and then the IC50 of the compound was determined.

T1 sequence (Q04609 whole entry): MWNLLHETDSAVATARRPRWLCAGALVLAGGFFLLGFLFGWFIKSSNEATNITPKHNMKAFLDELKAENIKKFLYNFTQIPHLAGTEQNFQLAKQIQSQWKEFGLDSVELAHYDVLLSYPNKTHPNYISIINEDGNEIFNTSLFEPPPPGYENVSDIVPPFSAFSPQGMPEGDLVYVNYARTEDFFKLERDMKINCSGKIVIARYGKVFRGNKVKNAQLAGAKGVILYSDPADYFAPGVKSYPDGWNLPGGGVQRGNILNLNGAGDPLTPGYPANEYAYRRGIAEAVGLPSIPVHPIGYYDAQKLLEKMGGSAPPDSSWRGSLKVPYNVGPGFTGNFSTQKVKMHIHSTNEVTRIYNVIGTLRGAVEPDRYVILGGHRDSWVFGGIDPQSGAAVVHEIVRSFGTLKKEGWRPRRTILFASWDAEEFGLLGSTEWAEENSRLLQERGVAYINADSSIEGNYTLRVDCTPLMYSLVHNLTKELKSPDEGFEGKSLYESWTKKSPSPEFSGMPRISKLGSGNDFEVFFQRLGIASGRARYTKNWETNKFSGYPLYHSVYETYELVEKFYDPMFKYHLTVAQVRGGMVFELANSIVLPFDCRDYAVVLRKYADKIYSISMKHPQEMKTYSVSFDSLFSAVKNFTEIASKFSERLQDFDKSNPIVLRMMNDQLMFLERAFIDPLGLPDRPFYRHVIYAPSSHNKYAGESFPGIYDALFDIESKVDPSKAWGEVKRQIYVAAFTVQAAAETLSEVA

CN(CC(=O)O)C1(CCCCC(=O)NCCNc2c(NCCCC[C@H](NC(=O)N[C@@H](CCC(=O)O)C(=O)O)C(=O)O)c(=O)c2=O)CN(CC(=O)O)CCN(CC(=O)O)C1 [DATA.QS.KuE]
kidney exposure/dose by comparison with PSMA-11 (LNCaP tumor): considerably lower | tumor enrichment by comparison with PSMA-11 (LNCaP tumor): approximately the same

CCC(C)C(C(CC(=O)N1CCCC1C(OC)C(C)C(=O)NC(C)C(O)c1ccccc1)OC)N(C)C(=O)C(NC(=O)C(C(C)C)N(C)C(=O)OCc1ccc(NC(=O)C(CCCNC(N)=O)NC(=O)C(Nc2c(NCC3CCC(C(=O)NC(Cc4ccc5ccccc5c4)C(=O)NCCCCC(NC(=O)NC(CCC(=O)O)C(=O)O)C(=O)O)CC3)c(=O)c2=O)C(C)C)cc1)C(C)C (stereo not drawn) [MMAE.ValCit.QS.617.KuE]
IC50 (PSMA): 198.1 ± 1.9 nM | Ki (PSMA): 162 ± 3.3 nM | cell cytotoxicity in vitro compared with pure active ingredient MMAE (LNCaP cells; 72 hours): somewhat lower | IC50 (LNCaP cells): 32.2 ± 5.7 nM

CC[C@H](C)[C@@H]([C@@H](CC(=O)N1CCC[C@H]1[C@H](OC)[C@@H](C)C(=O)N[C@H](C)[C@@H](O)c1ccccc1)OC)N(C)C(=O)[C@@H](NC(=O)[C@@H](NC)C(C)C)C(C)C [MMAE, Monomethyl-auristatin E, reference compound] (H-[NMeV]V[Dil][Dolaproine]-X1)
IC50 (LNCaP cells; Homo sapiens): 0.29 ± 0.12 nM

O=C(O)CCC(NC(=O)NC(CCCCNC(=O)C(Cc1ccc2ccccc2c1)NC(=O)C1CCC(CNC(=O)CN2CCN(CC(=O)O)CCN(CC(=O)O)CCN(CC(=O)O)CC2)CC1)C(=O)O)C(=O)O (stereo not drawn) [PSMA-617, reference compound]
Ki (PSMA; LNCaP cells, competition with 68Ga[Ga]PSMA-10, 45 min incubation, calculated from inhibition curves, read-out: Ki (PSMA binding affinities)): 12.3 ± 3.1 nM | IC50 (PSMA; LNCaP cells, competition with 68Ga[Ga]PSMA-10, 45 min incubation, read-out: IC50 (PSMA binding affinities)): 15.1 ± 3.8 nM
